A word on the melting point: it is the temperature of the solid-liquid transition. As a reminder, the AUC(0-t) is the area under the concentration-time curve up to a stated or last time point. A lower AUC(0-t) goes with less exposure. The term EC50 denotes the concentration needed to bring the measured effect to its halfway point.

Where a name gives a salt, the structure may show the parent alone. Read-outs that look alike come from different tables or passages of the source.

Data set [1] is described as follows: Storage stability as solid or 10 mM DMSO stock solution.
A short description of data set [2]: Pharmacokinetics in mice, 10 mg/kg i.v. In kind it is in vivo, Male CD1 mice. The note with it: for half-life: plasma, 10 mg/kg. As to the method:
Although vinyl sulfones have been used as covalent warheads for inhibition of a wide range of cysteine proteases, there are relatively few reports of their use in vivo [14].
Blood samples were centrifuged at 4000× g for 5 min at 4 °C to obtain plasma. The plasma samples from each time point were pooled and then analyzed by LCMS/MS. The PK parameters were estimated by a non-compartmental model using WinNonlin 8.3.

Data set [3] can be described thus: GSH capture assay. In kind it is physicochemical. The settings on record: GSH (100×), phosphate buffer pH 7.4, 30 °C.
The subject of data set [4] is VEEV. The settings on record: read-out: VEEV EC50 (alphavirus replication); cited from earlier work.
The test system of data set [5] is VEEV nsP2 protease. The settings on record: cited from earlier work.

Molecule `CS(=O)(=O)CC1CNC(=O)c2cc(NS(=O)(=O)c3ccccc3)nn21` (stereo not shown) (as salt: TFA) [Compound 8, N-(7-((methylsulfonyl)methyl)-4-oxo-4,5,6,7-tetrahydropyrazolo[1,5-a]pyrazin-2-yl)benzenesulfonamide] came in with a melting point of 222 °C.
In the case of `CCOc1ccccc1-c1cc2n(n1)C(CS(C)(=O)=O)CNC2=O` (stereo not shown) [Compound 2, 2-(2-ethoxyphenyl)-7-((methylsulfonyl)methyl)-6,7-dihydropyrazolo[1,5-a]pyrazin-4(5H)-one], the Stability upon storage entry in data set [1] is given as “stable”. Besides, in data set [2], the “Plasma exposure relative to 1” value was 4 fold. In data set [2] (male, CD1, mouse, iv, pooled plasma), this molecule displayed an area under the curve AUC(0-t) of 3800 ng·h/mL. Besides, the half-life in data set [2] (male, CD1, mouse, iv, pooled plasma, read-out: T1/2 (converted)) was 30.6 min. Moreover, the half-life in data set [2] (male, CD1, mouse, iv, read-out: i.v. half-life) is roughly 30 min. In addition, in data set [2] (pooled plasma), the Clobs is on record as 44 mL/min/kg and the Vssobs was 0.32 L/kg. In data set [3] (8 h), the “GSH-Adduct Formation (%)” value is 0%.
As to `CS(=O)(=O)CC1CNC(=O)c2cc(NS(=O)(=O)c3ccccc3)nn21` (stereo not shown) [Compound 8, N-(7-((methylsulfonyl)methyl)-4-oxo-4,5,6,7-tetrahydropyrazolo[1,5-a]pyrazin-2-yl)benzenesulfonamide], the “GSH-Adduct Formation (%)” value was 3% in data set [3] (8 h) and 6% in data set [3] (24 h).
Regarding `C[C@@H]1CC(C)(C)Nc2c(C(=O)NC/C=C/S(C)(=O)=O)cccc21` [Compound #11], the EC50 in data set [4] is 1.4 µM. The “VEEV nsP2 protease activity inhibition” value in data set [5] is recorded as “micromolar inhibitor”.

The values are drawn from paper PMC11279629, “Identification of Dihydropyrazolo[1,5-a]pyrazin-4(5H)-ones as Cyclic Products of β-Amidomethyl Vinyl Sulfone Alphavirus Cysteine Protease Inhibitors” (Pharmaceuticals, 2024).
